This note sets out measurements from ChEMBL document CHEMBL1136560, “1,4-Diazepane-2-ones as novel inhibitors of LFA-1” (Bioorg Med Chem Lett, 2003).

pIC50: −log10 of the molar value.

Intercellular adhesion molecule (ICAM-1), Integrin alpha-L/beta-2, sequence (P20701 whole entry): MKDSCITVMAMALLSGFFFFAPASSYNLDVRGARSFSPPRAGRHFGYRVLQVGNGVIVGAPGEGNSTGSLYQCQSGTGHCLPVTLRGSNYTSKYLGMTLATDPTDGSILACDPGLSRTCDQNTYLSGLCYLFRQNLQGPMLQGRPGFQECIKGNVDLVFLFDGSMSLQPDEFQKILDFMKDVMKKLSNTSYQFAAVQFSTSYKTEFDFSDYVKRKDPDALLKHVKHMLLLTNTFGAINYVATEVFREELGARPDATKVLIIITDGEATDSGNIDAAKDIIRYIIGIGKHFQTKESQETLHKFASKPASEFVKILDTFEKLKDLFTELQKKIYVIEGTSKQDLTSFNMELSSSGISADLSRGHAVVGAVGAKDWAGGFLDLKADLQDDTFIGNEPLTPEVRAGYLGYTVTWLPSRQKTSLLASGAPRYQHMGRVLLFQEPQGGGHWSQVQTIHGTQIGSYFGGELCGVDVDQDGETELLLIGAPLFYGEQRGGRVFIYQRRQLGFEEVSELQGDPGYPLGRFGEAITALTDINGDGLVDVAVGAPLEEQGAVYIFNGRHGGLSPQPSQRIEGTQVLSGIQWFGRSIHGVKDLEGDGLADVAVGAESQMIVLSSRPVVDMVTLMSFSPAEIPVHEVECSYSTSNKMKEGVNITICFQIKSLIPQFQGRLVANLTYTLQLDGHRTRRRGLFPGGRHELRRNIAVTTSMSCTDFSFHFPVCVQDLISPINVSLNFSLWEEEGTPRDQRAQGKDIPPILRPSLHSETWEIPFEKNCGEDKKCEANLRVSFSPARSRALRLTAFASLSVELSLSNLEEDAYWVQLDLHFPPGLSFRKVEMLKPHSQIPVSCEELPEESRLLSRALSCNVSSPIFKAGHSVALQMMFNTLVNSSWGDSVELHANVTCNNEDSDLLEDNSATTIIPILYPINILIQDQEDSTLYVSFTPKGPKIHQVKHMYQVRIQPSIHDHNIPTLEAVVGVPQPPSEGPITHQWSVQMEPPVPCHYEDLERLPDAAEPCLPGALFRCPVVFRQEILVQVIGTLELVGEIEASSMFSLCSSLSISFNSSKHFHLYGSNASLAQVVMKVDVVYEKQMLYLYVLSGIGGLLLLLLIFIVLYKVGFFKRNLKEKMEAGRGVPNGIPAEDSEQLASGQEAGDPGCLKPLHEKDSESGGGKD
Intercellular adhesion molecule (ICAM-1), Integrin alpha-L/beta-2, sequence (P05362 whole entry, further chain): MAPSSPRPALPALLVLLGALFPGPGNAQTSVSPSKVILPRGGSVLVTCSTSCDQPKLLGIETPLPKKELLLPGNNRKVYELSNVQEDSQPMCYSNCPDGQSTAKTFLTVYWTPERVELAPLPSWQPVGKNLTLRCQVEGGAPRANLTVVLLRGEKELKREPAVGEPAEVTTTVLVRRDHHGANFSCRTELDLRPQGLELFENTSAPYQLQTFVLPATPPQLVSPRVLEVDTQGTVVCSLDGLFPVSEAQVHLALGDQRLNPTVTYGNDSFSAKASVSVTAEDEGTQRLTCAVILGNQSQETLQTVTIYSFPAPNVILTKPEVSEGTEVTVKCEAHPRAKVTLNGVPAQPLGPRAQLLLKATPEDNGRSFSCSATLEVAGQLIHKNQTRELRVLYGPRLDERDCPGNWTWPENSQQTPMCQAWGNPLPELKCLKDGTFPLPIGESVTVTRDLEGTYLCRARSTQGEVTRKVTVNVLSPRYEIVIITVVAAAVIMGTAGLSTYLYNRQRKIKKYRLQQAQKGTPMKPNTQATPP
Intercellular adhesion molecule (ICAM-1), Integrin alpha-L/beta-2, sequence (P05107 whole entry): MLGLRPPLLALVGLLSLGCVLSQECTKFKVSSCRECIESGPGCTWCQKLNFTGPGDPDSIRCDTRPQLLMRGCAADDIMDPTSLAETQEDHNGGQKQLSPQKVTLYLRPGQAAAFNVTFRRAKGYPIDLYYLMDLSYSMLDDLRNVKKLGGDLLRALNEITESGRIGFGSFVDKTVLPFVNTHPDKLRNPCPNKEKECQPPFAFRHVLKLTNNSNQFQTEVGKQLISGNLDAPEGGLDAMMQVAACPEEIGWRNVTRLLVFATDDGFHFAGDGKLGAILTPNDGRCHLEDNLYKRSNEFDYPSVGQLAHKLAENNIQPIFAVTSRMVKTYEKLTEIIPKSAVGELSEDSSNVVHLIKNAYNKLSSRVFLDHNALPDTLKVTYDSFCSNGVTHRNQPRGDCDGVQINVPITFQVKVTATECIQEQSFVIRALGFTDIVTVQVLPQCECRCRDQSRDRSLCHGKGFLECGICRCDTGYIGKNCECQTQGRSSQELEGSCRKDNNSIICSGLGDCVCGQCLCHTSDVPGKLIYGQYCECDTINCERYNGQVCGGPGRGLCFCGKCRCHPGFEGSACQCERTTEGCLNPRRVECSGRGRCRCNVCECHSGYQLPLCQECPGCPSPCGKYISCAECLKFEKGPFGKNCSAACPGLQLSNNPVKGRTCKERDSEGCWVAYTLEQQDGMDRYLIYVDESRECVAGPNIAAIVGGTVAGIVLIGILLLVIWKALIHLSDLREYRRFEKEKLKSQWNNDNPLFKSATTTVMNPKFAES

This assay addresses Intercellular adhesion molecule (ICAM-1), Integrin alpha-L/beta-2 (Homo sapiens, UniProt P05107+P20701). As to the kind of experiment: Inhibition of LFA-1/ICAM-1 interaction in ELISA. It counts as protein-complex assay.
Consider `CC(C)C[C@H]1C(=O)N([C@@H](Cc2ccc3ccccc3c2)C(N)=O)CC[C@@H](C)N1C(=O)Cc1ccncc1`, for which the pIC50 was 6.01.
Consider `CC(C)C[C@H]1C(=O)N([C@@H](Cc2ccc3ccccc3c2)C(=O)O)CC[C@@H](C)N1C(=O)Cc1ccc2ccccc2c1`, for which the pIC50 was below 4.70.
Then `COC(=O)[C@H](Cc1ccc2ccccc2c1)N1CC[C@@H](C)N(C(=O)Cc2ccc3ncccc3c2)[C@@H](CC(C)C)C1=O`, with 5.59; and `CC(C)C[C@H]1C(=O)N([C@@H](Cc2ccc3ccccc3c2)C(N)=O)CC[C@@H](C)N1C(=O)Cc1ccccc1`, with 6.12.
On to `CC(C)C[C@H]1C(=O)N([C@H](C(N)=O)c2ccc3ccccc3c2)CCC(C)N1C(=O)Cc1ccc2ccccc2c1` (some centres not stated), for which the pIC50 is below 4.70.
Then `CC(C)C[C@H]1C(=O)N([C@@H](Cc2ccc3ccccc3c2)C(N)=O)CC[C@@H](C)N1C(=O)Cc1ccc(Br)cc1`, with 5.89.
Consider `CC(C)C[C@H]1C(=O)N([C@@H](Cc2ccc3ccccc3c2)C(N)=O)CC[C@@H](C)N1C(=O)Cc1ccc2ccccc2c1`, for which the pIC50 was 5.70. The pIC50 values of the last two compounds are within 0.2 log units of each other.
